Experimental data: PubChem BioAssay (NCI)
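Method: 48-hour compound exposure of cells in 96-well plates, five concentrations, linear interpolation of endpoints. The concentration for 50% growth inhibition is given as GI50. At the TGI there is no net growth.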

Legend:
Test in all cases: NCI tumour cell line growth inhibition, 48 h
[1] = tested on: 786-0 renal
[2] = tested on: A498 renal
[3] = tested on: A549 NSCLC
[4] = tested on: ACHN renal
[5] = tested on: BT-549 breast
[6] = tested on: CAKI-1 renal
[7] = tested on: CCRF-CEM leukemia
[8] = tested on: COLO 205 colon
[9] = tested on: DU-145 prostate
[10] = tested on: HCC-2998 colon
[11] = tested on: HCT-116 colon
[12] = tested on: HCT-15 colon
[13] = tested on: HL-60(TB) leukemia
[14] = tested on: HOP-62 NSCLC
[15] = tested on: HOP-92 NSCLC
[16] = tested on: HS 578T breast
[17] = tested on: HT29 colon
[18] = tested on: IGROV1 ovarian
[19] = tested on: K-562 leukemia
[20] = tested on: KM12 colon
[21] = tested on: LOX IMVI melanoma
[22] = tested on: M14 melanoma
[23] = tested on: MALME-3M melanoma
[24] = tested on: MCF7 breast
[25] = tested on: MDA-MB-231 breast
[26] = tested on: MDA-MB-435
[27] = tested on: MOLT-4 leukemia
[28] = tested on: NCI-H226 lung
[29] = tested on: NCI-H23 lung
[30] = tested on: NCI-H460 lung
[31] = tested on: NCI-H522 lung
[32] = tested on: NCI/ADR-RES ovarian
[33] = tested on: OVCAR-3 ovarian
[34] = tested on: OVCAR-4 ovarian
[35] = tested on: OVCAR-5 ovarian
[36] = tested on: OVCAR-8 ovarian
[37] = tested on: PC-3 prostate
[38] = tested on: RPMI-8226 leukemia
[39] = tested on: RXF 393 renal
[40] = tested on: SF-268 CNS
[41] = tested on: SF-295 CNS
[42] = tested on: SF-539 CNS
[43] = tested on: SK-MEL-2 melanoma
[44] = tested on: SK-MEL-28 melanoma
[45] = tested on: SN12C renal
[46] = tested on: SNB-19 CNS
[47] = tested on: SNB-75 CNS
[48] = tested on: SR leukemia
[49] = tested on: SW-620 colon
[50] = tested on: T-47D breast
[51] = tested on: TK-10 renal
[52] = tested on: U251 CNS
[53] = tested on: UACC-62 melanoma
[54] = tested on: UO-31 renal

CN(CCOc1ccc(NS(C)(=O)=O)cc1)CCc1ccc(NS(C)(=O)=O)cc1
GI50 [1]: > 100 µM
TGI [1]: > 100 µM
GI50 [2]: 96 µM
TGI [2]: > 100 µM
GI50 [3]: > 100 µM
TGI [3]: > 100 µM
GI50 [4]: > 100 µM
TGI [4]: > 100 µM
GI50 [5]: > 100 µM
TGI [5]: > 100 µM
GI50 [6]: > 100 µM
TGI [6]: > 100 µM
GI50 [7]: > 100 µM
TGI [7]: > 100 µM
GI50 [8]: > 100 µM
TGI [8]: > 100 µM
GI50 [9]: > 100 µM
TGI [9]: > 100 µM
GI50 [10]: > 100 µM
TGI [10]: > 100 µM
GI50 [11]: > 100 µM
TGI [11]: > 100 µM
GI50 [12]: > 100 µM
TGI [12]: > 100 µM
GI50 [13]: > 100 µM
TGI [13]: > 100 µM
GI50 [14]: > 100 µM
TGI [14]: > 100 µM
GI50 [15]: > 100 µM
TGI [15]: > 100 µM
GI50 [16]: > 100 µM
TGI [16]: > 100 µM
GI50 [17]: > 100 µM
TGI [17]: > 100 µM
GI50 [18]: > 100 µM
TGI [18]: > 100 µM
GI50 [19]: > 100 µM
TGI [19]: > 100 µM
GI50 [20]: > 100 µM
TGI [20]: > 100 µM
GI50 [21]: > 100 µM
TGI [21]: > 100 µM
GI50 [22]: > 100 µM
TGI [22]: > 100 µM
GI50 [23]: > 100 µM
TGI [23]: > 100 µM
GI50 [24]: > 100 µM
TGI [24]: > 100 µM
GI50 [25]: > 100 µM
TGI [25]: > 100 µM
GI50 [26]: > 100 µM
TGI [26]: > 100 µM
GI50 [27]: > 100 µM
TGI [27]: > 100 µM
GI50 [28]: > 100 µM
TGI [28]: > 100 µM
GI50 [29]: > 100 µM
TGI [29]: > 100 µM
GI50 [30]: > 100 µM
TGI [30]: > 100 µM
GI50 [31]: > 100 µM
TGI [31]: > 100 µM
GI50 [32]: > 100 µM
TGI [32]: > 100 µM
GI50 [33]: > 100 µM
TGI [33]: > 100 µM
GI50 [34]: > 100 µM
TGI [34]: > 100 µM
GI50 [35]: > 100 µM
TGI [35]: > 100 µM
GI50 [36]: > 100 µM
TGI [36]: > 100 µM
GI50 [37]: > 100 µM
TGI [37]: > 100 µM
GI50 [38]: > 100 µM
TGI [38]: > 100 µM
GI50 [39]: > 100 µM
TGI [39]: > 100 µM
GI50 [40]: > 100 µM
TGI [40]: > 100 µM
GI50 [41]: > 100 µM
TGI [41]: > 100 µM
GI50 [42]: > 100 µM
TGI [42]: > 100 µM
GI50 [43]: > 100 µM
TGI [43]: > 100 µM
GI50 [44]: > 100 µM
TGI [44]: > 100 µM
GI50 [45]: > 100 µM
TGI [45]: > 100 µM
GI50 [46]: > 100 µM
TGI [46]: > 100 µM
GI50 [47]: > 100 µM
TGI [47]: > 100 µM
GI50 [48]: > 100 µM
TGI [48]: > 100 µM
GI50 [49]: > 100 µM
TGI [49]: > 100 µM
GI50 [50]: > 100 µM
TGI [50]: > 100 µM
GI50 [51]: > 100 µM
TGI [51]: > 100 µM
GI50 [52]: > 100 µM
TGI [52]: > 100 µM
GI50 [53]: > 100 µM
TGI [53]: > 100 µM
GI50 [54]: > 100 µM
TGI [54]: > 100 µM
